From the supplement of paper PMC10307832

Key:
Assay in all cases: relative viability (nuclei count vs DMSO), 5 days (fraction); higher = more cells survive
Ponatinib + Alpelisib = compound: Cc1ccc(C(=O)Nc2ccc(CN3CCN(C)CC3)c(C(F)(F)F)c2)cc1C#Cc1cnc2cccnn12 [Ponatinib] + Cc1nc(NC(=O)N2CCC[C@H]2C(N)=O)sc1-c1ccnc(C(C)(C)C(F)(F)F)c1 [Alpelisib] (partner 2 µM)
Procedure, shortened: (§1)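 A single step with final 0.05% Triton X-100, 1% formaldehyde and 1 ug/ml Hoechst fixed the cells and stained nuclei 5 days after treatment. Lung cancer cell lines in 1536-well plates had been treated by pin tool the day after seeding with one drug alone or a fixed anchor-drug dose plus five library-drug doses (not always all listed) in √10 steps, and nuclei were counted on 4× images. Relative viability is the ratio of nuclei in treated wells to nuclei in vehicle wells, taken as the median of duplicate plates.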

Ponatinib + Dasatinib = compound: Cc1ccc(C(=O)Nc2ccc(CN3CCN(C)CC3)c(C(F)(F)F)c2)cc1C#Cc1cnc2cccnn12 [Ponatinib] + Cc1nc(Nc2ncc(C(=O)Nc3c(C)cccc3Cl)s2)cc(N2CCN(CCO)CC2)n1 [Dasatinib] (partner 0.075 µM)
Procedure, shortened: as §1

Pazopanib + Foretinib = compound: Cc1ccc(Nc2nccc(N(C)c3ccc4c(C)n(C)nc4c3)n2)cc1S(N)(=O)=O [Pazopanib] + COc1cc2c(Oc3ccc(NC(=O)C4(C(=O)Nc5ccc(F)cc5)CC4)cc3F)ccnc2cc1OCCCN1CCOCC1 [Foretinib] (partner 0.25 µM)
Procedure, shortened: as §1

Pazopanib + Crizotinib = compound: Cc1ccc(Nc2nccc(N(C)c3ccc4c(C)n(C)nc4c3)n2)cc1S(N)(=O)=O [Pazopanib] + C[C@@H](Oc1cc(-c2cnn(C3CCNCC3)c2)cnc1N)c1c(Cl)ccc(F)c1Cl [Crizotinib] (partner 1 µM)
Procedure, shortened: as §1

Cell Line	relative viability (Ponatinib + Alpelisib; first compound 0.002 µM)	relative viability (Ponatinib + Alpelisib; first compound 0.006325 µM)	relative viability (Ponatinib + Alpelisib; first compound 0.06325 µM)	relative viability (Ponatinib + Alpelisib; first compound 0.2 µM)	relative viability (Ponatinib + Dasatinib; first compound 0.002 µM)	relative viability (Ponatinib + Dasatinib; first compound 0.006325 µM)	relative viability (Ponatinib + Dasatinib; first compound 0.06325 µM)	relative viability (Ponatinib + Dasatinib; first compound 0.2 µM)	relative viability (Pazopanib + Foretinib; first compound 0.01 µM)	relative viability (Pazopanib + Foretinib; first compound 0.03162 µM)	relative viability (Pazopanib + Foretinib; first compound 0.1 µM)	relative viability (Pazopanib + Foretinib; first compound 0.3162 µM)	relative viability (Pazopanib + Foretinib; first compound 1 µM)	relative viability (Pazopanib + Crizotinib; first compound 0.01 µM)	relative viability (Pazopanib + Crizotinib; first compound 0.03162 µM)	relative viability (Pazopanib + Crizotinib; first compound 0.1 µM)	relative viability (Pazopanib + Crizotinib; first compound 0.3162 µM)	relative viability (Pazopanib + Crizotinib; first compound 1 µM)
LU99A	0.519	0.453	0.62	0.466	0.498	0.664	0.498	0.462	0.772	0.906	0.878	0.864	0.837	0.499	0.533	0.53	0.606	0.568
LXF-289	1.05	1.02	1.04	1.08	0.26	0.275	0.26	0.195	1.06	1.06	1.08	0.99	0.996	0.851	0.829	0.801	0.782	0.824
NCI-H23	0.61	0.818	0.905	0.666	0.667	0.748	0.867	0.726	1.1	1.02	0.964	0.947	1.12	0.594	0.474	0.577	0.735	0.591
NCI-H522					0.782	0.846	0.703	0.816										
NCI-H1299	1.04	1.09	0.987	0.935					1.07	1.06	1.13	1.09	1.01	0.983	0.913	0.921	0.969	0.892
NCI-H1395		1.03	1.09	0.804	0.392	0.404	0.427	0.393	0.947	1.07	1.01	0.931	0.968					
NCI-H1623					0.524	0.527	0.55	0.539	0.835	0.846	0.834	0.896	0.911					
NCI-H1650					0.298	0.346	0.327	0.349	1.12	1.2	1.15	1.05	1.09	1.09	1	1	0.857	0.965
NCI-H1703	0.299	0.355	0.225	0.186					0.306	0.358	0.362	0.396	0.337	0.587	0.628	0.261	0.215	0.221
NCI-H1792	0.668	0.681	0.746	0.656	0.726	0.795	0.886	0.542							0.927	0.967	0.912	0.952
NCI-H1793	0.677	0.946	0.907	0.729	0.37	0.36	0.348	0.352		0.478	0.628	0.867	0.938					
NCI-H2342					0.285	0.309	0.296	0.296	0.981	1	1.09	0.939	0.755					
SW 900					0.682	0.494	0.453	0.48	0.843	0.886	0.941	0.876	0.97					
